According to patent US6548492B1, “Process for formulation of carbapenem antibiotic compositions” (Merck & Co., Inc., priority 1999, dated 2003):

Tests used:
[1] = Stability and hygroscopicity of the bulk monosodium salt carbapenem on storage; type: physicochemical
Description: and a process for the preparation thereof.
During the manufacture of bulk compound products such as beta-lactam and carbapenem antibiotics, the pharmaceutical compound is prepared by chemical synthesis from raw materials in large quantities. As with many carbapenem compounds, the compound in accordance with formula I is prepared in large batches as a monosodium salt. The compound is a weakly crystalline solid, hygroscopic at ambient conditions, and is unstable at room and refrigerated temperatures. Therefore, the bulk compound must be stored at a temperature of about −20° C. to prevent degradation into dimer and open ring by-products.

[2] = cited from earlier work

SMILES: CC(O)C1C(=O)N2C(C(=O)[O-])=C(SC3CNC(C(=O)Nc4cccc(C(=O)O)c4)C3)C(C)C12.[Na+] (stereo not shown) [formula I]
- hygroscopicity ([1]; ambient conditions, weakly crystalline solid): hygroscopic
- stability at room and refrigerated temperatures ([1]; bulk monosodium salt): unstable
- stability at ambient conditions ([2]; 20° C. and 1 atmosphere, monosodium salt): relatively unstable
- stability at temperatures above about −20° C. ([2]; undergoes dimerization and hydrolysis to dimers and open ring by-products): remains unstable
